Data published in US20240228475A1, “PROCESSES FOR THE PREPARATION OF (S)-2-(2,6-DIOXOPIPERIDIN-3-YL)-4-((2-FLUORO-4-((3-MORPHOLINOAZETIDIN-1-YL)METHYL)BENZYL)AMINO)ISOINDOLINE-1,3-DIONE” (Celgene Corporation, priority 2021, published 2024).
In brackets after ≈: the same amount, converted by molar mass.

How the values were obtained:
[1] = Chiral stability (racemization) of Compound 1 free base in aqueous at various pH; format: physicochemical; details: for Chiral Purity: aqueous
Description: (§1) The rate is time and temperature sensitive (Table 1). The isolation of the crystalline bis-besylate salt of Compound 1 avoids the need for a pH swing. Also, the crystalline freebase has poor morphology which makes filtration slow, increasing the risk for racemization.

[2] = Solubility of Compound 1 free base in aqueous at various pH; format: physicochemical; details: aqueous solution, aqueous buffer
Description: as §1

Chiral stability towards aqueous base ([1]; aqueous base, rate is time and temperature sensitive)	Chiral Purity ([1]; pH 5.3, time 3 h) [%]	Chiral Purity ([1]; pH 6.7, time 4 h) [%]	Chiral Purity ([1]; pH 7.6, time 4 h) [%]	solubility at 3 h ([2]; pH 5.3, time 3 h) [µg/mL]	solubility at 4 h ([2]; pH 6.7, time 4 h) [µg/mL]	solubility at 4 h ([2]; pH 7.6, time 4 h) [µg/mL]	Chiral stability compared to the crystalline freebase ([1]; isolated solid, compared to crystalline freebase)	SMILES
racemization was observed	94.1	89.1	83.2	4500 (≈ 8.4 mM)	2400 (≈ 4.48 mM)	400 (≈ 0.747 mM)	–	O=C1CC[C@H](N2C(=O)c3cccc(NCc4ccc(CN5CC(N6CCOCC6)C5)cc4F)c3C2=O)C(=O)N1 [Compound 1 Free Base, (S)-2-(2,6-dioxopiperidin-3-yl)-4-((2-fluoro-4-((3-morpholinoazetidin-1-yl)methyl)benzyl)amino)isoindoline-1,3-dione]
–	–	–	–	–	–	–	more stable	O=C1CC[C@H](N2C(=O)c3cccc(NCc4ccc(CN5CC(N6CCOCC6)C5)cc4F)c3C2=O)C(=O)N1.O=S(=O)(O)c1ccccc1.O=S(=O)(O)c1ccccc1 [Compound 1 bis-besylate salt, (S)-2-(2,6-dioxopiperidin-3-yl)-4-((2-fluoro-4-((3-morpholinoazetidin-1-yl)methyl)benzyl)amino)isoindoline-1,3-dione bis-besylate salt]
